{"source": "paper PMC13472183", "about": "(Journal of drug delivery science and technology, 2022)", "origin": "cited, not measured here", "conditions": "previous reported value, without the EDA modification"}
{"substance": "NH2-(VPGFG)6G-(GPO)7GG-CONH2 [F6-GPO7]", "values": [{"measurement": "Tm (triple helix melting temperature)", "value": 50, "unit": "°C"}]}
